Patent US7863446B2, “Heterocycles” (Orchid Research Laboratories Limited, priority 2006, dated 2011)

Key:
TNF-α = assay: In vitro measurement of TNF-α in human PBMC (LPS stimulated); format: cell-based
Description: In Vitro Measurement of Tumor Necrosis Factor Alpha (TNF-α)
This assay determines the effect of test compounds on the production of TNF α in human Peripheral Blood Mononuclear Cells (PBMC). Compounds were tested for their ability to inhibit the activity of TNF α in human PBMC. PBMC were isolated from blood (of healthy volunteers) using BD Vacutainer CPT™ (Cell preparation tube, BD Bio Science) and suspended in RPMI medium (Physiol. Res. 52: 593-598, 2003). The test compounds were pre-incubated with PBMC (0.5 million/incubation well) for 15 minutes at 37° C. and then stimulated with Lipopolysaccharide (Escherichia coli: B4; 1 μg/ml) for 18 hours at 37° C. in 5% CO2. The levels of TNF-α in the cell culture medium were estimated using enzyme-linked immunosorbent assay performed in a 96 well format as per the procedure of the manufacturer (Cayman Chemical, Ann Arbor, USA).

COX-2 = molecular target: T1, COX-2 (Homo sapiens, UniProt P35354); assay: Human whole blood assay (PGE-2 inhibition, COX-2); format: cell-based; details: LPS stimulated human whole blood, NA = No activity, read-out: % PGE-2 Inhibition in hWBA
T1 construct: Fresh blood was collected in tubes containing sodium heparin by vein puncture from healthy male volunteers; endogenous in cells; host or cells: human whole blood from healthy male volunteers, stimulated with LPS
T1 sequence (P35354 18-604): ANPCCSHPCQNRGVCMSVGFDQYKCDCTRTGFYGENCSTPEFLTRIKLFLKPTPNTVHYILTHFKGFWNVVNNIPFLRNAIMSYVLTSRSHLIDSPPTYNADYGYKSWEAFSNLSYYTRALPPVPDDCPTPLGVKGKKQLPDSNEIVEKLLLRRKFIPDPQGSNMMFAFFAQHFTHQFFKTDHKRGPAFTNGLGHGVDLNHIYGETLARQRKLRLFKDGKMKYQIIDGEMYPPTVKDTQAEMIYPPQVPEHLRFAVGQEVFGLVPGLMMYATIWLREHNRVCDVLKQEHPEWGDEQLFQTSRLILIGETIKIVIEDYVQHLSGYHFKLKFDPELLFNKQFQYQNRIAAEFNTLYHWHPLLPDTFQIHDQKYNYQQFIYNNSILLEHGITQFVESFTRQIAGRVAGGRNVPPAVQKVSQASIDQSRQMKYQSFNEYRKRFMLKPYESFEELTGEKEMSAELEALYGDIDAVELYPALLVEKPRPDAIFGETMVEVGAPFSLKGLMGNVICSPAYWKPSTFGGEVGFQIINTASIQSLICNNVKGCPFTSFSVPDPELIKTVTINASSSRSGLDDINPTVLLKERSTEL
Description: In Vitro Evaluation of Cyclooxygenase-2 (Cox-2) Inhibition Activity
The COX-2 inhibition activities of the compounds illustrated in the examples were determined by the following method.
Human whole blood provides a protein and cell rich milieu appropriate for the study of the biochemical efficacy of anti-inflammatory compounds such as selective COX-2 inhibitors. […] This correlates with the observation that COX-2 inhibitors have no effect on prostaglandin E2 (PGE2) production in normal blood. These inhibitors were active only after incubation of human blood with lipopolysaccharide (LPS), which induces COX-2 production in the blood.
Fresh blood was collected in tubes containing sodium heparin by vein puncture from healthy male volunteers. The subjects should have no apparent inflammatory conditions and should have not taken NSAIDs for at least 7 days prior to blood collection. Blood was preincubated with aspirin in vitro (12 μg/ml, at time zero) to inactivate COX-1 for 6 hours. Then test compounds (at various concentrations) or vehicle were added to blood, the blood was stimulated with LPS B:4 (10 μg/ml) and incubated for another 18 hours at 37° C. water bath. After which the blood was centrifuged, plasma was separated and stored at −80° C. (J. Pharmacol. Exp. Ther, 271, 1705, 1994; Proc. Natl. Acad. Sci. USA, 96, 7563, 1999). The plasma was assayed for PGE2 using Cayman ELISA kit as per the procedure outlined by the manufacturer (Cayman Chemicals, Ann Arbor, USA).

HCT-116 = assay: Anti-cancer screen (MTT), HCT-116; format: cell-based; details: Homo sapiens, HCT-116, 48 hours
Description: (§1) Experimental drugs are screened for anti-cancer activity in three cell lines for their GI50, TG1 and LC50 values (using 5 concentrations for each compound). The cell lines are maintained in DMEM containing 10% fetal bovine serum. 96 well microtiter plates are inoculated with cells in […] for 24 hours at 37° C., 5% CO2, 95% air and 100% relative humidity. 5000 HCT116 cells/well, 5000 NCIH460 cells/well, 10000 U251 cells/well and 5000 MDAMB231 cells/well are plated. A separate plate with these cell lines is also inoculated to determine cell viability before the addition of the compounds (T0).
(§2) Addition of Experimental Drugs
(§3) Following 24-hour incubation, experimental drugs are added to the 96 well plates. Each plate contains one of the above cell lines and the following in triplicate: 5 different concentrations (0.01, 0.1, 1, 10 and 100 μM) of 4 different compounds, appropriate dilutions of a cytotoxic standard and control (untreated) wells. Compounds are dissolved in dimethylsulfoxide (DMSO) to make 20 mM stock solutions, on the day of drug addition and frozen at −20° C. Serial dilutions of these 20 mM stock solutions are made in complete growth medium such that 100 μL of these drug solutions in medium, of final concentrations equaling 0.01, 0.1, 1, 10 and 100 μM can be added to the cells in triplicate. Standard drugs whose anti-cancer activity has been well documented and which are regularly used are doxorubicin and SAHA.
(§4) Cells are incubated with compounds for 48 hours followed by the addition of 10 μL 3-(4,5-Dimethyl-2-thiazolyl)-2,5-diphenyl-2H-tetrazolium (MTT) solution per well and a subsequent incubation at 37° C., 5% CO2, 95% air and 100% relative humidity, protected from light. After 4 hours, well contents are aspirated carefully followed by addition of 150 μL DMSO per well. Plates are agitated to ensure solution of the formazan crystals in DMSO and absorbance read at 570 nm.
(§5) Calculation of GI50, TGI and LC50
(§6) Percent growth is calculated for each compound's concentration relative to the control and zero measurement wells (T0; viability right before compound addition).
(§7) If a test well's O.D. value is greater than the T0 measurement for that cell line % Growth=(test−zero)/(control−zero)×100
(§8) If a test well's O.D. value is lower than the T0 measurement for that cell line, then % Growth=(test−zero)/zero×100 Plotting % growth versus experimental drug concentration, GI50 is the concentration required to decrease % growth by 50%; TGI is the concentration required to decrease % growth by 100% and LC50 is the concentration required to decrease % growth by 150%.

NCI-H460 = assay: Anti-cancer screen (MTT), NCI-H460; format: cell-based; details: Homo sapiens, NCI-H460, 48 hours
Description: as §1, §2, §3, §4, §5, §6, §7, §8

[1] = molecular target: purified recombinant COX-1 (Homo sapiens, UniProt P23219); assay: COX-1 enzyme based assay; format: biochemical; details: NA = No activity, read-out: % Inhibition in rEnzyme Assay COX-1
Description: (§9) COX-1 and COX-2 Enzyme Based Assay
(§10) COX-1 and COX-2 enzyme based assays were carried out to check the inhibitory potential of the test compounds on the production of prostaglandin by purified recombinant COX-1/COX-2 enzyme (Proc. Nat. Acad. Sci. USA, 88, 2692-2696, 1991; J. Clin. Immunoassay 15, 116-120, 1992) In this assay, the potential of the test compound to inhibit the production of prostaglandin either by COX-1 or COX-2 from arachidonic acid (substrate) was measured. This was an enzyme based in-vitro assay to evaluate selective COX inhibition with good reproducibility.
(§11) Arachidonic acid was converted to PGH2 (Intermediate product) by COX1/COX-2 in the presence or absence of the test compound. The reaction was carried out at 37° C. and after 2 minutes it was stopped by adding 1M HCl. Intermediate product PGH2 was converted to a stable prostanoid product PGF2αby SnCl2 reduction. The amount of PGF2α, produced in the reaction was inversely proportional to the COX inhibitory potential of the test compound. The prostanoid product was quantified via enzyme immunoassay (EIA) using a broadly specific antibody that binds to all the major forms of prostaglandin, using Cayman ELISA kit as per the procedure outlined by the manufacturer (Cayman Chemicals, Ann Arbor, USA).

[2] = molecular target: T2, purified recombinant COX-2 (Homo sapiens, UniProt P35354); assay: COX-2 enzyme based assay; format: biochemical; details: 10 μM; NA = No activity; read-out: % Inhibition in rEnzyme Assay COX-2
T2 sequence (P35354 18-604): T1 sequence (P35354 18-604)
Description: as §9, §10, §11

purified recombinant COX-1, sequence (P23219 24-599): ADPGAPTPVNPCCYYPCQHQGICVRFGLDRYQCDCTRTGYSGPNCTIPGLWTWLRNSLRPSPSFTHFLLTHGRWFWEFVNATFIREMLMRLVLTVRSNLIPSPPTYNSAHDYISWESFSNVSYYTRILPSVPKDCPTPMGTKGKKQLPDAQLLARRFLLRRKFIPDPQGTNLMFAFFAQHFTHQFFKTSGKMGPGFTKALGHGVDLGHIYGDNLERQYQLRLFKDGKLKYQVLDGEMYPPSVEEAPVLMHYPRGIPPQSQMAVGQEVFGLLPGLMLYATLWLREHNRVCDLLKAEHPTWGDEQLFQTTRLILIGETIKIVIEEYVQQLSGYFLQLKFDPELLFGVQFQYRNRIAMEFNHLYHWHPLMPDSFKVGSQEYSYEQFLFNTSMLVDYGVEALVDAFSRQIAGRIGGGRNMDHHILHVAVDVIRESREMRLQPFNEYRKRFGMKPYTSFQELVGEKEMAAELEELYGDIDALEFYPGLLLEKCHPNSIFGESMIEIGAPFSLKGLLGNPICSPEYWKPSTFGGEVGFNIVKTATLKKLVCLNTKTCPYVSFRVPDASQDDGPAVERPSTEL

Row | melting point [°C] | GI50 (HCT-116) [µM] | GI50 (NCI-H460) [µM] | SMILES | further results
1 |  | 26 | 4.5 | O=C(c1ccc([N+](=O)[O-])o1)N1CCN(c2nc(C(F)(F)F)nc(-c3ccncc3)c2-c2ccc(F)cc2)CC1 [Example 44, 5-[4-Fluorophenyl]-4-[4-(5-nitro-2-furoyl)piperazin-1-yl]-6-pyridin-4-yl-2-(trifluoromethyl)pyrimidine] | 
2 | 165 to 167 |  |  | FC(F)(F)c1nc(-c2ccccc2)c(-c2ccccc2)c(N2CCN(c3ccccn3)CC2)n1 [Example 48, 4,5-Diphenyl-6-(4-pyridin-2-yl-piperazin-1-yl)-2-(trifluoromethyl)pyrimidine] | 
3 |  | 30 | 4 | NS(=O)(=O)c1cccc(-c2c(-c3ccccc3)nc(C(F)(F)F)nc2N2CCNCC2)c1 [Example 51, 3-[4-Phenyl-6-piperazin-1-yl-2-(trifluoromethyl)pyrimidin-5-yl]benzenesulfonamide] | inhibition at 1 µM ([1]; 1 μM): 8.27%; inhibition at 10 µM ([1]; 10 μM): 7.1%; inhibition at 10 µM [2]: 12.3%
4 |  | 9.2 | 9 | NS(=O)(=O)c1cccc(-c2c(-c3ccc(F)cc3)nc(C(F)(F)F)nc2N2CCN(c3cccc(C(F)(F)F)c3)CC2)c1 [Example 73, 5-(3-Aminosulfonylphenyl)-4-(4-fluorophenyl)-2-(trifluoromethyl)-6-{4-[3-(trifluoromethyl)phenyl]piperazin-1-yl}pyrimidine] | 

The remaining lines, values behind:

Row | SMILES | melting point [°C] | GI50 (HCT-116) [µM] | GI50 (NCI-H460) [µM] | further results
5 | CS(=O)(=O)c1ccc(-c2nc(C(F)(F)F)nc(Cl)c2-c2ccc(S(=O)(=O)Cl)cc2)cc1 [Example 3, 4-{4-Chloro-6-[4-(methylsulfonyl)phenyl]-2-(trifluoromethyl)pyrimidin-5-yl}benzenesulfonyl chloride] | 207 to 210 |  |  | 
6 | O=C(NNc1nc(C(F)(F)F)nc(-c2ccncc2)c1-c1ccc(F)cc1)C(F)(F)F [Example 14, 2,2,2-Trifluoro-N′-[5-(4-fluorophenyl)-6-pyridin-4-yl-2-(trifluoromethyl)pyrimidin-4-yl]acetohydrazide] | 240 to 242 |  |  | inhibition at 1 µM (TNF-α; 1 μM, NA = No activity, read-out: TNF-α Inhibition (%) at Conc. (1 μM)): 25.5%; inhibition at 10 µM (TNF-α; 10 μM, read-out: TNF-α Inhibition (%) at Conc. (10 μM)): 67.5%
7 | CC(=O)NS(=O)(=O)c1ccc(-c2c(Cl)nc(C(F)(F)F)nc2-c2ccc(S(C)(=O)=O)cc2)cc1 [Example 17, N-[(4-{4-Chloro-6-[4-(methylsulfonyl)phenyl]-2-(trifluoromethyl)pyrimidin-5-yl}phenyl)sulfonyl]acetamide] | 230 to 235 |  |  | 
8 | Cc1ccc(S(=O)(=O)Oc2nc(C(F)(F)F)nc(-c3ccc(S(C)(=O)=O)cc3)c2-c2ccccc2)cc1 [Example 22, 6-[4-(Methylsulfonyl)phenyl]-5-phenyl-2-(trifluoromethyl)pyrimidin-4-yl-4-methylbenzenesulfonate] |  |  |  | inhibition at 0.25 µM (COX-2; 0.25 μM): 15.6%; inhibition at 1 µM (COX-2; 1 μM): 20.4%; inhibition at 10 µM (COX-2; 10 μM): 36.4%
9 | NS(=O)(=O)c1ccc(-c2nc(C(F)(F)F)nc(N3CCN(C(=O)c4ccc([N+](=O)[O-])o4)CC3)c2-c2ccc(F)cc2)cc1 [Example 40, 4-{5-[4-Fluorophenyl]-4-[4-(5-nitro-2-furoyl)piperazin-1-yl]-2-(trifluoromethyl)pyrimidin-6-yl}benzenesulfonamide] |  | 3.5 | 3.8 | 
10 | NS(=O)(=O)c1ccc(-c2c(-c3ccc(F)cc3)nc(C(F)(F)F)nc2N2CCN(C(=O)c3ccc([N+](=O)[O-])o3)CC2)cc1 [Example 41, 4-{6-[4-Fluorophenyl]-4-[4-(5-nitro-2-furoyl)piperazin-1-yl]-2-(trifluoromethyl)pyrimidin-5-yl}benzenesulfonamide] |  | 7 | 4 | 
11 | CSc1nn(-c2nc(C(F)(F)F)nc(-c3ccncc3)c2-c2ccc(F)cc2)c(N)c1C(=O)Nc1ccc(C)c(C)c1 [Example 143, 5-Amino-N-(4,5-dimethylphenyl)-1-[5-(4-fluorophenyl)-6-pyridin-4-yl-2-(trifluoromethyl)pyrimidin-4-yl]-3-(methylthio)-1H-pyrazole-4-carboxamide] |  | 20 | 0.1 | 
